Assay results reported in patent US7163941B2, “Pyrido[2,3-d]pyrimidin-7-carboxylic acid derivatives, their manufacture and use as pharmaceutical agents” (Hoffmann-La Roche Inc., priority 2003, dated 2007).
pIC50: −log10 of the molar value.

Columns and labels:
Lck (p56^lck, active) = molecular target: T1, Lck (p56^lck, active) (Homo sapiens, UniProt P06239); assay: SRC-Inhibitor-Assay (time-resolved fluorescence), Lck enzyme; type: biochemical; conditions: ATP 5 μM, peptide 10 μM, enzyme 2.5 U/ml, pre-incubation 15 min at 15° C.
T1 construct: purchased Upstate (UBI)
Experimental: (§1) The activity of the compounds according to this invention as inhibitors for the src-family tyrosine kinases was shown by using the following assay.
(§2) SRC-Inhibitor-Assay Parameters:
(§3) • Reaction mixture: • ATP 5 μM • Peptide (R+Ja133-Ro): 10 μM • Ja133-Ro 196 nM • Ro 9.8 μM • PT66 230 ng/ml • Assay buffer: 4 mM MgCl2 • 2 mM TCEP • 50 mM HEPES • 0,1% Tween 20 • pH 7.3 • Enzyme: 2.5 U/ml • Inhibitor: max. 25 μM • min. 0.42 nM Material: • Eu-labelled phosphotyrosine antibody: -for Lck Cisbio Mab PT66-K, • for Src EG&G Wallac PT66 Eu-W1024 (all commercially available). • Peptides: Ro: NH2-A-E-E-E-I-Y-G-E-F-E-A-K-K-K-K-CONH2 (SEQ ID NO: 1), and • Ja133-Ro: Ja133-G-Aminocaprylic acid-A-E-E-E-I-Y-G-E-F-E-A-K-K-K-K-CONH2 (SEQ ID NO: 2), wherein Ja133 is LightCycler-Red 640-N-hydroxy succinimide ester; • whereby both peptides were synthesized by an optimized solid phase peptide synthesis protocol (Merrifield, Fed. Proc. Fed. Amer. Soc. Exp. Biol. 21 (1962) 412) on a Zinsser SMP350 peptide synthesizer. Shortly, the peptide was assembled on 160 mg (22.8 μmol scale) of a Rink-Linker modified polystyrene solid phase by repeatedly conjugating an twenty fold excess of aminoacids each protected by temporary piperidine labile Fmoc- and permanent acid labile tert-Bu-, BOC- and Otert-Bu-groups depending on the side chain function. The substrate sequence AEEEIYGEFEAKKKK (SEQ ID NO: 1) was N-terminal additionally mounted with the spacer amino acids Aminocaprylic acid and Glycin. After cleavage of the N-terminal temporary protecting group the still attached and protected peptide was labeled with a 1.5 fold amount of LightCycler-Red 640-N-hydroxy succinimide ester (purchased by Roche Diagnostics GmbH) and triethylamine. After 3 hrs. the resin was washed with Dimethylformamide and Isopropanol until the eluates of the blue resin got colo-rless. […] The substrate was finally isolated by a preparative reverse phase HPLC purification. The purification yielded 12.2 mg RP-HPLC single peak pure blue material (lyophilisate). The identity was proven by MALDI mass spectroscopy [2720.0]. • Enzymes: Upstate Lck (p56^lck, active), Upstate Src (p60^c-src, partially purified) were purchased from UBI. • Time-resolved Fluorescence Assay: Reader: Perkin Elmer, Wallac Viktor 1420-040 multilabel counter; Liquid handling system: Beckman Coulter, Biomek 2000. ATP, Tween 20, HEPES were purchased from Roche Molecular Biochemicals, MgCl2 and MnCl2 were purchased from Merck Eurolab, TCEP was purchased from Pierce, 384 Well low volume fluorescence plates was purchased from Falcon. Assay Description:
(§4) At first the enzyme is pre-incubated for 15 min. at 15° C. in aqueous solution with corresponding amounts of inhibitors according to this invention. Then the phosphorylation reaction is started by adding a reaction mixture, containing ATP, Peptide and PT66, and subsequent shaking. The proceeding of this reaction is immediately monitored using time resolved fluorescence spectroscopy in a suitable well plate reader.
(§5) The IC50-values can be obtained from the reaction rates by using a non-linear curve fit (Excelfit).

[1] = molecular target: T2, Src (p60^c-src, partially purified) (Homo sapiens, UniProt P12931); assay: SRC-Inhibitor-Assay (time-resolved fluorescence), Src enzyme; type: biochemical; conditions: ATP 5 μM, peptide 10 μM, enzyme 2.5 U/ml, pre-incubation 15 min at 15° C.
T2 construct: purchased Upstate (UBI)
Experimental: as §1, §2, §3, §4, §5

T1 sequence (P06239 whole entry, species assumed): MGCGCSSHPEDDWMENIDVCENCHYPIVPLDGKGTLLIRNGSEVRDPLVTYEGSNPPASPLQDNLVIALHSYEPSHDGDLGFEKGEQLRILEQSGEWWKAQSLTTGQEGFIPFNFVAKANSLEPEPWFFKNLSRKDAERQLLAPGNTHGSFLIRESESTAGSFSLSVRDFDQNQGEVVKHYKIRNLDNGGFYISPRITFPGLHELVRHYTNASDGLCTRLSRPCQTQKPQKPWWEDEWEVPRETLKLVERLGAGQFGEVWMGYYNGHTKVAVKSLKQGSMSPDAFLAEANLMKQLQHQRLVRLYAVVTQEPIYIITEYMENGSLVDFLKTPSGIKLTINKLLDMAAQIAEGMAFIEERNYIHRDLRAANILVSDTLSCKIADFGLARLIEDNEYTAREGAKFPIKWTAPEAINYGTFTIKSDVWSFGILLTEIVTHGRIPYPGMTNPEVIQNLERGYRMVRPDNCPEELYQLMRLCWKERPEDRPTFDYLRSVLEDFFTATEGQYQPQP
T2 sequence (P12931 whole entry, species assumed): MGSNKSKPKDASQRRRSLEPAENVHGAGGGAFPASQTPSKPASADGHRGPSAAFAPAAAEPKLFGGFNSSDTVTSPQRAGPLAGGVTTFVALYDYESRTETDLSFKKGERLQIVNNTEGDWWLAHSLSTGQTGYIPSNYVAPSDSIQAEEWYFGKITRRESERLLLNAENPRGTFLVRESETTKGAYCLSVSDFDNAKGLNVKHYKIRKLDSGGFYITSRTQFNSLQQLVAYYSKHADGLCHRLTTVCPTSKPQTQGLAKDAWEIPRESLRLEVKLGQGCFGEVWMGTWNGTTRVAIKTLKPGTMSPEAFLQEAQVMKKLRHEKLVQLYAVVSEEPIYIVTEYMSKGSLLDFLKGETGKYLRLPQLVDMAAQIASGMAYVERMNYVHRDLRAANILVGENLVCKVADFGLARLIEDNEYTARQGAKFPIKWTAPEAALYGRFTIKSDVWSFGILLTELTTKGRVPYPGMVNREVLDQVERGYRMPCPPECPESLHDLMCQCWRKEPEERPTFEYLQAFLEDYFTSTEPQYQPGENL

pIC50 (Lck (p56^lck, active)) | pIC50 [1] | SMILES
6.56 | 6.71 | O=C(NCCCN1CCCC1=O)c1nc2nc(Nc3ccc(F)cc3)ncc2cc1-c1ccccc1Br [Example 3-26, 6-(2-Bromo-phenyl)-2-(4-fluoro-phenylamino)-pyrido[2,3-d]pyrimidine-7-carboxylic acid [3-(2-oxo-pyrrolidin-1-yl)-propyl]-amide]
7.22 | 7.97 | O=C(NC1CCNCC1)c1nc2nc(Nc3ccc(N4CCOCC4)cc3)ncc2cc1-c1ccccc1Br [Example 1, 6-(2-Bromo-phenyl)-2-(4-morpholin-4-yl-phenylamino)-pyrido[2,3-d]pyrimidine-7-carboxylic acid piperidin-4-ylamide]
7.28 | 8.46 | C[S+]([O-])c1cccc(Nc2ncc3cc(-c4ccccc4Br)c(C#N)nc3n2)c1 (stereo not drawn) [Example 4-5, 6-(2-Bromo-phenyl)-2-(3-methanesulfinyl-phenylamino)-pyrido[2,3-d]pyrimidine-7-carbonitrile]
8.21 | 9.00 | CS(=O)(=O)NCCNC(=O)c1nc2nc(Nc3cccc(SCCO)c3)ncc2cc1-c1ccccc1Br [Example 7-23, 6-(2-bromo-phenyl)-2-[3-(2-hydroxy-ethylsulfanyl)-phenylamino]-pyrido[2,3-d]pyrimidine-7-carboxylic acid (2-methanesulfonylamino-ethyl)-amide]
6.43 | 6.80 | O=C(NCCN1CCNC1=O)c1nc2nc(Nc3ccc(F)cc3)ncc2cc1-c1ccccc1Br [Example 3-25, 6-(2-Bromo-phenyl)-2-(4-fluoro-phenylamino)-pyrido[2,3-d]pyrimidine-7-carboxylic acid[2-(2-oxo-imidazolidin-1-yl)-ethyl]-amide]
6.71 | 6.93 | O=C(NCCCN1CCOCC1)c1nc2nc(Nc3ccc(F)cc3)ncc2cc1-c1ccccc1Br [Example 3-32, 6-(2-Bromo-phenyl)-2-(4-fluoro-phenylamino)-pyrido[2,3-d]pyrimidine-7-carboxylic acid (3-morpholin-4-yl-propyl)-amide]
8.38 | 8.96 | CCNCCOc1ccc(Nc2ncc3cc(-c4ccccc4Br)c(C#N)nc3n2)cc1 [Example 4-4, 6-(2-Bromo-phenyl)-2-[4-(2-ethylamino-ethoxy)-phenylamino]-pyrido[2,3-d]pyrimidine-7-carbonitrile]
8.05 | 8.40 | CS(=O)(=O)NCCNC(=O)c1nc2nc(Nc3ccc4c(c3)OC(CO)CO4)ncc2cc1-c1ccccc1Br (stereo not drawn) [Example 7-24, 6-(2-bromo-phenyl)-2-(3-hydroxymethyl-2,3-dihydro-benzo[1,4]dioxin-6-ylamino)-pyrido[2,3-d]pyrimidine-7-carboxylic acid (2-methanesulfonylamino-ethyl)-amide]
6.80 | 7.48 | CS(=O)(=O)c1cccc(Nc2ncc3cc(-c4ccccc4Br)c(C#N)nc3n2)c1 [Example 2, 6-(2-Bromo-phenyl)-2-(3-methanesulfonyl-phenylamino)-pyrido[2,3-d]pyrimidine-7-carbonitrile]
6.66 | 7.38 | CN(C)CC(C)(C)CNC(=O)c1nc2nc(Nc3ccc(F)cc3)ncc2cc1-c1ccccc1Br [Example 3-15, 6-(2-Bromo-phenyl)-2-(4-fluoro-phenylamino)-pyrido[2,3-d]pyrimidine-7-carboxylic acid (3-dimethylamino-2,2-dimethyl-propyl)-amide]
6.34 | 7.04 | O=C(NCCCO)c1nc2nc(Nc3ccc(F)cc3)ncc2cc1-c1ccccc1Br [Example 3-38, 6-(2-Bromo-phenyl)-2-(4-fluoro-phenylamino)-pyrido[2,3-d]pyrimidine-7-carboxylic acid (3-hydroxy-propyl)-amide]
6.96 | 7.45 | CNS(=O)(=O)Cc1cccc(Nc2ncc3cc(-c4ccccc4Br)c(C(N)=O)nc3n2)c1 [Example 3-5, 6-(2-Bromo-phenyl)-2-(3-methylsulfamoylmethyl-phenylamino)-pyrido[2,3-d]pyrimidine-7-carboxylic acid amide]
7.56 | 8.18 | O=C(N[C@H]1CCCNC1)c1nc2nc(Nc3ccc(F)cc3)ncc2cc1-c1ccccc1Br [Example 3-47, (S)-6-(2-Bromo-phenyl)-2-(4-fluoro-phenylamino)-pyrido[2,3-d]pyrimidine-7-carboxylic acid piperidin-3-ylamide]
6.81 | 7.67 | O=C(NCCO)c1nc2nc(Nc3ccc(F)cc3)ncc2cc1-c1ccccc1Br [Example 3-45, 6-(2-Bromo-phenyl)-2-(4-fluoro-phenylamino)-pyrido[2,3-d]pyrimidine-7-carboxylic acid (2-hydroxy-ethyl)-amide]
6.94 | 7.61 | O=C(NCCc1cnc[nH]1)c1nc2nc(Nc3ccc(F)cc3)ncc2cc1-c1ccccc1Br [Example 3-39, 6-(2-Bromo-phenyl)-2-(4-fluoro-phenylamino)-pyrido[2,3-d]pyrimidine-7-carboxylic acid [2-(3H-imidazol-4-yl)-ethyl]-amide]
7.42 | 8.68 | O=C(NC[C@H]1CCCN1)c1nc2nc(Nc3ccc(F)cc3)ncc2cc1-c1ccccc1Br [Example 3-48, (R)-6-(2-Bromo-phenyl)-2-(4-fluoro-phenylamino)-pyrido[2,3-d]pyrimidine-7-carboxylic acid (pyrrolidin-2-ylmethyl)-amide]
6.69 | 6.88 | CNC(=O)CNC(=O)c1nc2nc(Nc3ccc(F)cc3)ncc2cc1-c1ccccc1Br [Example 3-24, 6-(2-Bromo-phenyl)-2-(4-fluoro-phenylamino)-pyrido[2,3-d]pyrimidine-7-carboxylic acid methylcarbamoylmethyl-amide]
7.49 | 8.77 | CSc1cccc(Nc2ncc3cc(-c4ccccc4Br)c(C(=O)NCCN(C)C)nc3n2)c1 [Example 3-8, 6-(2-Bromo-phenyl)-2-(3-methylsulfanyl-phenylamino)-pyrido[2,3-d]pyrimidine-7-carboxylic acid (2-dimethylamino-ethyl)-amide]
7.92 | 8.74 | CC(=O)Nc1cccc(Nc2ncc3cc(-c4ccccc4Br)c(C(=O)NCCNS(C)(=O)=O)nc3n2)c1 [Example 7-21, 2-(3-acetylamino-phenylamino)-6-(2-bromo-phenyl)-pyrido[2,3-d]pyrimidine-7-carboxylic acid (2-methanesulfonylamino-ethyl)-amide]
6.63 | 7.66 | CN(C)CCCNC(=O)c1nc2nc(Nc3ccc(F)cc3)ncc2cc1-c1ccccc1Br [Example 3-14, 6-(2-Bromo-phenyl)-2-(4-fluoro-phenylamino)-pyrido[2,3-d]pyrimidine-7-carboxylic acid (3-dimethylamino-propyl)-amide]
6.84 | 7.65 | NC(=O)c1nc2nc(Nc3cccc(S(=O)(=O)CCO)c3)ncc2cc1-c1ccccc1Br [Example 3-6, 6-(2-Bromo-phenyl)-2-[3-(2-hydroxy-ethanesulfonyl)-phenylamino]-pyrido[2,3-d]pyrimidine-7-carboxylic acid amide]
– | 8.11 | CSc1cccc(Nc2ncc3cc(-c4ccccc4Br)c(C(N)=O)nc3n2)c1 [Example 3-3, 6-(2-Bromo-phenyl)-2-(3-methylsulfanyl-phenylamino)-pyrido[2,3-d]pyrimidine-7-carboxylic acid amide]

SMILES | pIC50 (Lck (p56^lck, active)) | pIC50 [1]
O=C(NC1CN2CCC1CC2)c1nc2nc(Nc3ccc(F)cc3)ncc2cc1-c1ccccc1Br (stereo not drawn) [Example 3-35, 6-(2-Bromo-phenyl)-2-(4-fluoro-phenylamino)-pyrido[2,3-d]pyrimidine-7-carboxylic acid (1-aza-bicyclo[2.2.2]oct-3-yl)-amide] | 6.60 | 7.14
